Where a name gives a salt, the structure may show the parent alone. ± gives the standard deviation of the averaged measurements.
Key:
[1] = tested on: Homo sapiens (human subject panel, olfactory perception); experiment: perceived odor pleasantness rating (rating 0-100); higher = more pleasant
Description: (§1)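 Human olfactory psychophysics. 55 healthy subjects (after excluding 6 low performers) sniffed 1 mL of each odorant diluted in paraffin oil (vials, two dilutions per molecule, 20 molecules presented twice). Each subject rated intensity, pleasantness and familiarity on a 0-100 slider, starting at 50 and required to move. Ratings were given only when the subject reported detecting a smell; per-subject ratings are averaged over subjects.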

[2] = tested on: Homo sapiens (human subject panel, olfactory perception); experiment: perceived odor intensity rating (rating 0-100); higher = stronger perceived smell
Description: as §1

[3] = tested on: Homo sapiens (human subject panel, olfactory perception); experiment: perceived odor familiarity rating (rating 0-100); higher = more familiar
Description: as §1

[4] = odor dilution in paraffin oil: 1/1,000
[5] = odor dilution in paraffin oil: 1/100,000
[6] = odor dilution in paraffin oil: 1/10
[7] = odor dilution in paraffin oil: 1/10,000,000

Row | SMILES | perceived odor pleasantness rating [1, 4] | perceived odor pleasantness rating [1, 5] | perceived odor intensity rating [2, 4] | perceived odor intensity rating [2, 5] | perceived odor familiarity rating [3, 4] | perceived odor familiarity rating [3, 5] | perceived odor pleasantness rating [1, 6] | perceived odor intensity rating [2, 6] | perceived odor familiarity rating [3, 6] | perceived odor pleasantness rating [1, 7] | perceived odor intensity rating [2, 7] | perceived odor familiarity rating [3, 7]
1 | C=CC(CCCCC)OC(C)=O (stereo not given) [1-Octen-3-yl acetate] | 34.1 ± 22 | 42.9 ± 24 | 55.9 ± 29 | 26.4 ± 26 | 35.2 ± 29 | 32.8 ± 27 |  |  |  |  |  | 
2 | CCCC(O)CC (stereo not given) [3-hexanol] | 35.1 ± 26 | 49.1 ± 24 | 71.3 ± 28 | 29.7 ± 30 | 43.1 ± 31 | 28.1 ± 23 |  |  |  |  |  | 
3 | C/C=C/C=C/COC(C)=O [trans,trans-2,4-Hexadienyl acetate (replicate)] | 49.5 ± 25 |  | 23.5 ± 26 |  | 30.6 ± 27 |  | 47.6 ± 22 | 19.1 ± 20 | 30.4 ± 25 |  |  | 
4 | N[C@@H](Cc1ccc(O)cc1)C(=O)O [L-Tyrosine] | 44 ± 23 | 44.1 ± 30 | 30.7 ± 28 | 25.3 ± 33 | 37.4 ± 27 | 26.6 ± 26 |  |  |  |  |  | 
5 | c1ccc(Oc2ccccc2)cc1 [Diphenyl ether] | 49.9 ± 26 | 46.5 ± 22 | 55.1 ± 29 | 27 ± 28 | 40.4 ± 28 | 42.4 ± 29 |  |  |  |  |  | 
6 | CCOC(=O)CCSCc1ccco1 [Ethyl 3-(furfurylthio)propionate] |  | 19.6 ± 22 |  | 77.8 ± 18 |  | 50.2 ± 32 |  |  |  | 32.3 ± 24 | 58.7 ± 28 | 41.6 ± 32
7 | COc1ccc(C=O)cc1 [p-Anisaldehyde] | 60 ± 25 | 69 ± 21 | 71.2 ± 22 | 45.9 ± 31 | 54.5 ± 30 | 49.2 ± 32 |  |  |  |  |  | 
8 | COc1ccc(COC(C)=O)cc1 [Anisyl acetate] | 69.8 ± 21 | 48.7 ± 25 | 59.4 ± 26 | 31.7 ± 26 | 52.8 ± 29 | 39.3 ± 30 |  |  |  |  |  | 
9 | OC1CSC(O)CS1 (stereo not given) [2,5-Dihydroxy-1,4-dithiane] | 13.8 ± 22 |  | 88.4 ± 16 |  | 51.5 ± 32 |  | 16.9 ± 25 | 86.4 ± 16 | 50.9 ± 35 |  |  | 
10 | C/C=C/C=C/CO [trans,trans-2,4-Hexadien-1-ol] | 48 ± 23 | 49.6 ± 23 | 45.5 ± 30 | 14.4 ± 18 | 45.1 ± 32 | 36.4 ± 30 |  |  |  |  |  | 
11 | CCOc1cc(C=O)ccc1O [Ethyl Vanillin] | 83.9 ± 17 |  | 71 ± 26 |  | 77.3 ± 26 |  | 84.3 ± 20 | 75.3 ± 20 | 79.8 ± 22 |  |  | 
12 | CCOC(=O)C(C)CC (stereo not given) [Ethyl 2-methylbutyrate] | 75.1 ± 24 | 77.9 ± 20 | 76.5 ± 18 | 55.4 ± 28 | 69.6 ± 30 | 67.3 ± 25 |  |  |  |  |  | 
13 | CCCCCC(C=O)=Cc1ccccc1 [alpha-Amylcinnamaldehyde] | 33.2 ± 26 |  | 54.4 ± 32 |  | 36 ± 27 |  | 43.5 ± 27 | 65.5 ± 29 | 45.1 ± 31 |  |  | 
14 | CCOC(=O)c1ccco1 [Ethyl 2-furoate] | 42.8 ± 24 |  | 40.3 ± 34 |  | 36.6 ± 29 |  | 32 ± 28 | 87.4 ± 14 | 47.9 ± 33 |  |  | 
15 | C=Cc1scnc1C [4-Methyl-5-vinylthiazole] | 21.3 ± 22 | 38.6 ± 27 | 80.5 ± 21 | 43.5 ± 32 | 41.4 ± 34 | 40.3 ± 33 |  |  |  |  |  | 
16 | COC(=O)CSC [Methyl (methylthio)acetate] | 17.9 ± 24 | 37.7 ± 27 | 81.7 ± 16 | 37.8 ± 31 | 45.8 ± 30 | 38.9 ± 32 |  |  |  |  |  | 
17 | CCC(=O)CC [3-Pentanone] | 41.1 ± 26 | 45.4 ± 24 | 57.4 ± 35 | 33.3 ± 32 | 53.3 ± 32 | 39.5 ± 29 |  |  |  |  |  | 
18 | CC(=O)c1ccccn1 [2-acetyl pyridine] | 49.7 ± 28 | 53.6 ± 27 | 79.2 ± 20 | 74.3 ± 22 | 66.9 ± 28 | 67.8 ± 29 |  |  |  |  |  | 

Row | SMILES | perceived odor pleasantness rating [1, 4] | perceived odor pleasantness rating [1, 5] | perceived odor intensity rating [2, 4] | perceived odor intensity rating [2, 5] | perceived odor familiarity rating [3, 4] | perceived odor familiarity rating [3, 5] | perceived odor pleasantness rating [1, 6] | perceived odor intensity rating [2, 6] | perceived odor familiarity rating [3, 6] | perceived odor pleasantness rating [1, 7] | perceived odor intensity rating [2, 7] | perceived odor familiarity rating [3, 7]
19 | COC(=O)Cc1ccccc1 [Methyl phenylacetate] | 42.9 ± 30 | 42.3 ± 28 | 69.1 ± 25 | 58.1 ± 30 | 54 ± 30 | 49.6 ± 30 |  |  |  |  |  | 
20 | CCCCCCCCCC1CCCC(=O)O1 (stereo not given) [delta-Tetradecalactone] | 45.5 ± 24 | 48.1 ± 22 | 33.7 ± 26 | 20.7 ± 24 | 47.2 ± 27 | 33 ± 25 |  |  |  |  |  | 
21 | c1coc(CSCc2ccco2)c1 [2,2'-(Thiodimethylene)difuran] | 20.1 ± 23 | 26.9 ± 24 | 77.1 ± 24 | 73.5 ± 22 | 44.9 ± 32 | 52 ± 32 |  |  |  |  |  | 
22 | COc1cccc(OC)c1 [1,3-Dimethoxybenzene] | 49.7 ± 26 | 45.8 ± 28 | 68.4 ± 22 | 32.6 ± 30 | 54.1 ± 26 | 33.2 ± 27 |  |  |  |  |  | 
23 | Cc1ccc(O)cc1 [p-cresol] | 32.3 ± 29 | 31.6 ± 26 | 79 ± 20 | 68 ± 30 | 55 ± 33 | 54.1 ± 31 |  |  |  |  |  | 
24 | CSc1ccoc1C [2-Methyl-3-methylthiofuran] |  | 24.5 ± 19 |  | 66.8 ± 24 |  | 48.1 ± 28 |  |  |  | 39.4 ± 20 | 31.4 ± 28 | 33 ± 24
25 | O=c1ccc2ccccc2o1 [coumarin] | 65.1 ± 25 |  | 62.8 ± 26 |  | 55.9 ± 31 |  | 67.2 ± 26 | 77.5 ± 16 | 63.8 ± 30 |  |  | 
26 | CCCCCC(=O)CC [3-octanone] | 50.9 ± 31 | 53.3 ± 23 | 69.7 ± 25 | 26 ± 27 | 56.4 ± 28 | 35.9 ± 30 |  |  |  |  |  | 
27 | CCCCCCOC=O [Hexyl Formate] | 49 ± 28 | 42.2 ± 23 | 60.7 ± 29 | 33.9 ± 30 | 42.8 ± 32 | 35.5 ± 28 |  |  |  |  |  | 
28 | CC(C)[C@H](N)C(=O)O [L-Valine] | 50.5 ± 24 |  | 33.1 ± 33 |  | 41.5 ± 34 |  | 40.9 ± 25 | 42.1 ± 29 | 39.1 ± 31 |  |  | 
29 | C=CC(O)CCCCC (stereo not given) [1-Octen-3-ol] | 40.3 ± 27 | 42.2 ± 20 | 66.5 ± 26 | 37.7 ± 30 | 45.4 ± 32 | 39.4 ± 27 |  |  |  |  |  | 
30 | COC(=O)c1ccccc1OC [Methyl 2-methoxybenzoate] | 48.1 ± 26 | 45.9 ± 25 | 47.5 ± 31 | 20.6 ± 24 | 40.8 ± 31 | 37.5 ± 28 |  |  |  |  |  | 
31 | CSCSC [Bis(methylthio)methane] |  | 25.1 ± 25 |  | 78.7 ± 22 |  | 50.3 ± 34 |  |  |  | 45.4 ± 25 | 33.8 ± 26 | 38.9 ± 31
32 | CCC(O)CC [3-pentanol] | 34 ± 26 | 33.4 ± 25 | 76.4 ± 18 | 39.4 ± 35 | 58.3 ± 32 | 44 ± 33 |  |  |  |  |  | 
33 | N=C(N)NCCC[C@H](N)C(=O)O [L-Arginine] | 44.6 ± 19 |  | 20.4 ± 22 |  | 30.3 ± 24 |  | 47.9 ± 24 | 19.2 ± 25 | 29.4 ± 33 |  |  | 
34 | CCCCCCCCCCCCOC(C)=O [Lauryl acetate] | 43.5 ± 24 | 49.5 ± 26 | 33 ± 30 | 23 ± 27 | 33.3 ± 27 | 36.6 ± 27 |  |  |  |  |  | 
35 | S=C=NCCc1ccccc1 [2-Phenylethyl isothiocyanate] | 21.3 ± 21 | 37.7 ± 26 | 75.5 ± 20 | 38.2 ± 30 | 47 ± 31 | 41.3 ± 28 |  |  |  |  |  | 
